Data on one compound can be found in patent US6642215B2 (Leo Pharma A/S, priority 2001, dated 2003).

The subject of one experiment is IκBα, IκBβ. Put plainly: Western blotting of LPS-induced IκB degradation in THP-1 cells. The class given is cell-based, human. The conditions noted are these: 1 μM compound 24 h before 1 μg/ml LPS for 10 to 30 min, versus DMSO-treated cells. Here is the method:
Western blotting: THP-1 cells (5×10^6 cells) were starved overnight at 37° C., 5% CO2 in starvation medium (RPMI 1640 with 2% FBS) including 1 μM of compound A or 0.01% DMSO. The cells were hereafter stimulated with 1 μg/ml LPS (E. coli serotype 055: B5, Sigma-Aldrich Danmark AS, Vallensbaek Strand, Denmark) at the indicated times. Whole cell extracts were prepared in lysis buffer (50 mM HEPES, pH 7.5, 150 mM NaCl, 10 mM EDTA, 10 mM Na4P2O7, 100 mM NaF, 2 mM Na3VO4, 1% Triton-X-100, 0.5 mM Pefabloc (Boehringer Mannheim GmbH, Mannheim, Germany), […]).
A 3×SDS-sample buffer (125 mM Tris/HCl pH 6.8, 4% SDS, 20% glycerol, 0.025% bromphenol blue, 10% DTT) was added to 200 μl of clarified cell lysate, and the sample (20 μl) was boiled and electrophoresed on a 12% SDS-polyacrylamide gel. The primary antibodies (anti-IκBα, anti-IκBβ, anti-cdk-7; all from Santa Cruz Biotechnology Inc., Heidelberg, Germany) were diluted 1:1000. The secondary antibody (anti-rabbit-HRP from DAKO A/S, Glostrup, Denmark) was used in a 1:2000 dilution. […] The relative amounts of the transferred proteins were quantified by using the ImageQuant Software (Molecular Dynamics, Sunnyvale, Calif., USA) by scanning the autoradiographic films and normalized to the related cdk-7 amounts.
In general terms: Immunoblotting shows a protein as a band on a membrane.

The subject of another experiment is Colo-320 cells. Put plainly: DNA synthesis (tritiated thymidine incorporation) in Colo-320 cells. It is filed as cell-based. The conditions noted are these: Homo sapiens, 144 h incubation, mean ± SD of two to four experiments. Here is the method: DNA synthesis: NYH SCLC, HT-1080, Colo-320, PC-3 and H460 cells (7.5×10^3 cells/ml) were seeded in tissue culture vessels and the test compound were added 2 h after plating. Following an incubation for 144 h tritiated thymidine (5 CI/mmol, Amersham Pharmacia Biotech) was added to the culture at the concentration of 1 μCi/ml, and the cells were incubated for additional 4 h. The incorporated thymidine was measured with a β-counter. Each compound concentration was tested in triplicate.
(Dividing cells build labelled thymidine or BrdU into new DNA.)

For experiment [1], the system named is NF-κB. Put plainly: NF-κB-dependent luciferase assay in HT-1080 cells, TNF-α stimulation. The class given is cell-based, human. The following applies: Homo sapiens, compound 24 h before TNF-α 50 ng/ml 6 h, mean ± SD. Here is the method: (§1) The NF-κB-luciferase reporter plasmid (pBIIX) and pRL-TK control vector described in Example 1 were used for the luciferase assay,
The HT-1080 cells were seeded at a density of 3×10^4 cells/cm^2 in 6 well-plates. The following day, the cells were co-transfected with construct DNA and pRL-TK vector using FuGene Transfection Reagent. A mixture of 10 μl Fugene and 90 μl serum free medium (per well) was prepared and Incubated for 5 min at room temperature. Then, this mixture was transferred to a mixture of construct DNA (1.25 μg per well) and pRL-TK vector (0.25 μg per well), gently mixed, incubated for 15 min at room temperature and added to the cells. The cells were treated at 37° C. with compound A (10^−12−10^−5 M) or DMSO for 24 h before stimulation with TNF-α (50 ng/ml) for 6 h.
(§2) The cell lysate was assayed for luciferase activity using the Dual luciferase kit as described by the manufacturer (Promega). All transfections were performed in triplicate. Firefly luciferase activity was corrected for differences in transfection efficiency by normalizing it to the measured Renilla luciferase activity.
(§3) NF-κB activity was measured by the luciferase assay described in Example 1.

Experiment [2] has as its system NF-κB. The experiment is described as follows: NF-κB-dependent luciferase assay in Colo-320 cells, TNF-α stimulation. The class given is cell-based, human. The following applies: Homo sapiens, compound 24 h before TNF-α 50 ng/ml 6 h, mean ± SD. As for the experimental part: as §1
The Colo-320 cells were seeded with a density of 5×10^4 cells/cm^2 in 6-well plates (NUNC). The following day, the cells were co-transfected with construct DNA and pRL-TK using FuGene Transfection Reagent (Boehringer Mannheim). A mixture of 5 μl Fugene and 95 μl serum free medium (per well) was prepared and incubated for 5 min at room temperature. Then, the mixture was transferred to a mixture of construct DNA (2.5 μg per well) and pRL-TK vector (0.25 μg per well), gently mixed, incubated for 15 min at room temperature and added to the cells. The cells were treated at 37° C. with compound A (10^−12−10^−5 M) or DMSO for 24 h before stimulation with TNF-α (50 ng/ml) for 6 h.
as §2, §3

The test system of a further experiment is NYH Xenografts. The experiment is described as follows: NYH xenografts in nude mice, tumour growth. It is filed as in vivo, NMRI nu/nu mice. As for the experimental part:
(§4) All of the animal experiments were conducted according to the guidelines and ethical standards of the Danish Committee for Animal Experiments. Female NMRI nu/nu mice 6 weeks of age were purchased from M&B (Ry, Denmark). The mice were allowed an acclimatisation period of 1-3 weeks before start of the experiments. The nude mice were housed in Scantainers under semi-sterile conditions and all handling of mice was performed in a laminar flow bench.
NYH Xenografts. NMRI nu/nu mice were injected with 1×10^7 cells in 0.2 ml media s.c. in both flanks and tumour growth was measured twice weekly. The tumour area was used as expression of the tumour size and was calculated from two perpendicular diameters measured with a digital caliper. Compound A was given for fourteen consecutive days by oral gavage from day 4-6 when the tumour size was 24-30 mm^2. Each treatment group consisted of 10 mice.
(§5) Statistical Methods In the animal models, tumour sizes were expressed by the mean of the trends in each treatment group. The trend is the linear increment or tumour size, where tumour size is the square root of the (mean) area of the tumour(s). Comparison with controls was expressed as T/C % and calculated as follows:
A=(overall mean tumour size at baseline+mean trend of treatment*intended days of treatment)
B=(overall mean tumour size at baseline+mean trend of control*intended days of treatment)
Overall mean tumour size at baseline=pooling all treatments this is the mean of all baseline values. For each mouse the baseline value is calculated as the square root of the (mean) area of the tumour(s).
Significance was tested with the Bonferroni correction. This correction is a method for adjusting (lowering) the significance level so the overall finding of one significant difference due to chance is around 5 percent.

In the next experiment the test system is PC-3 Xenografts. Put plainly: PC-3 xenografts in nude mice, tumour growth. The conditions noted are these: PC-3 xenograft, 50 mg/kg, oral gavage. The class given is in vivo, NMRI nu/nu mice. As for the experimental part:
as §4
PC-3 Xenografts. NMRI nu/nu mice were injected with 1×10^6 cells in 0.2 ml media s.c. in each flank and tumour size was measured as mentioned above. Compound A was given for four weeks by oral gavage from day 14 when the tumour size was about 12 mm^2. Each treatment group consisted of 10 mice.
as §5
A=(overall mean tumour size at baseline+mean trend of treatment*intended days of treatment) […]
Overall mean tumour size at baseline=pooling all treatments this is the mean of all baseline values. For each mouse the baseline value is calculated as the square root of the (mean) area of the tumour(s). […]

Molecules are shown by their SMILES.

Regarding `N#CNC(=Nc1ccncc1)NCCCCCCOc1ccc(Cl)cc1` [compound A, N-(6-(4-chlorophenoxy)hexyl)-N′-cyano-N″-(4-pyridyl)guanidine], in the experiment with IκBα, IκBβ, the “LPS-induced IκB degradation” value is recorded as “much slower rate”. In addition, the half-inhibitory concentration (IC50) is 5.4 ± 0.1 nM in the experiment on Colo-320 cells, 2480 ± 775 nM in the experiment on NF-κB [1] and 84 ± 33 nM in the experiment with NF-κB [2]. Besides, the “In vivo xenografts in nude mice T/C (%)” value was −100% in the experiment on NYH Xenografts (NYH SCLC xenograft, 50 mg/kg, oral gavage) and −5% in the experiment on PC-3 Xenografts. For the same compound, the “NYH tumor growth in vivo (T/C in %)” value in the experiment with NYH Xenografts (nude mice with NYH SCLC tumours, 14 days of treatment with 20 mg/kg) is on record as −44%.

Broadly, the IC50 is the point on the concentration scale where inhibition reaches its midpoint. The low end stands for greater potency, the high end for weaker potency.
